Experimental data: patent publication US8524674B2, “Method of improving the conditioned reflex habit, the muscle tonus, or the motion coordination of a patient after suffering trauma to the brain cortex” (Obschestvo S Ogranichennoi Otvetstvennostyu “Sia Peptides”, priority 2006, dated 2013)
Several values for one entry are separate records, joined by “and”; a condition that tells them apart may be missing. Equal entries are not always repeated. Residues, ends and D or L forms follow the SMILES beside them.

Tests used:
white mongrel male mice = conditions: mouse, in vivo
Experimental: The study of acute toxicity was performed on 72 white mongrel male mice with body weight of 20-22 g. The animals were randomly subdivided into 6 equal groups. The substance was administered to the animals once, intramuscularly, in the doses of 1 mg/kg, 2 mg/kg, 3 mg/kg, 4 mg/kg, 5 mg/kg in 0.25 ml of sterile 0.9% NaCl solution. The control animals received 0.9% NaCl solution in the same volume.

white mongrel male rats = assay: Study of sub-acute toxicity, 90 days; type: in vivo; conditions: long-term administration, doses exceeding the therapeutic one by 100-1000 times
Experimental: The study of sub-acute toxicity was performed on 65 white mongrel male rats with body weight of 160-210 g. […] Morphology and properties of the animals' peripheral blood were studied before the administration of the substance, as well as on the 30th, 60th and 90th day after the beginning of the administration. Upon completion of the experiment biochemical and coagulologic indices of the blood were also evaluated.

brain cortex explants = assay: Development of brain cortex explants (area index); type: cell-based, Wistar rats
Experimental: This study was performed on 32 fragments of brain cortex from Wistar rats with body weight of 150-200 g. Nutritional medium for explants cultivation consisted of 35% Eagle's solution, 25% calf fetal serum, 35% Hank's solution, 5% chicken embryonic extract, with the addition of glucose (0.6%), insulin (0.5 units/ml), penicillin (100 units/ml), glutamine (2 mM). […] Peptide H-Glu-Asp-Arg-OH was added into the medium, reaching ultimate concentration of 1, 10 and 100 ng/ml.
Area index (AI), i.e. the ratio of total explant area together with the growth zone to the initial area of brain cortex fragment served as the criterion of biologic activity. The statistical significance of the difference between the compared mean AI values was evaluated using Student's t-criterion. AI values were expressed in percent, control AI values being considered as 100%.

[1] = system: rats with heavy compression cranial trauma; assay: Reparative processes in rat brain cortex after acute heavy cranial trauma (CAAR, rotating rod); type: in vivo, white mongrel rats
From the text: The effect of peptide H-Glu-Asp-Arg-OH on reparative processes in the brain was estimated on the pattern of acute heavy cranial trauma. The dynamics of central nervous system functions restoration were identified by testing motion coordination and muscle tonus of the animals, as well as their ability to learning and reproducing the conditioned reflex habit.
24 white mongrel rats were subjected to heavy compression cranial trauma from a falling leaden bob.
The estimation of the rats' ability to learn and reproduce the habits was performed using the test of conditioned active avoidance reflex (CAAR). Muscle tonus and motion coordination were tested by rotating the rats on a rod with increasing speed and measuring the time of their holding on to the rod.

[2] = system: rats with spinal cord trauma; assay: Morphologic alterations in the central nervous system in spinal cord trauma; type: in vivo, Wistar rats
Experimental: The study was performed on mature Wistar rats of both sexes with body weight of 180-200 g. The experimental group of 27 rats was subjected to spinal cord trauma.
The animals were injured in the lumbar segment of the spinal cord according to the following method. The lateral surfaces of anesthetized rats' vertebrae on the level of the last rib were compressed through the skin using dressing forceps with a force of 15 kg on the working surfaces. In 24 hours after the trauma the surviving animals were subdivided into 2 groups.
The rats of the second group (control) received sterile physiological saline solution in the same volume.
Neurohistological studies were performed in the animals of both groups on the 30th day of the experiment. For this purpose spinal cord ganglia were taken from the spots of injury and above the injured spots, as well as lumbar and cervical segments of the spinal cord and motor cortex fragments and pyramid tracts of the brain. Neurohistological studies were performed using electronic and luminous microscopy.
The samples intended for luminous microscopy were fixed in 96% spirit and 10% formalin, then packed into celloidin with subsequent staining with hematoxylin-eosine, as well as staining by Nissle, Van Gison, Weigert, Spielmeyer. The samples were fixed and cut in accordance with conventional methods of histological processing and staining of the samples.
The samples intended for electronic microscopy were fixed by 2% osmic acid with cacodylate buffer, then packed in Epon 812 and contrasted in lead […] by Reynolds. The preliminary evaluation of the samples was performed using semifine sections. Ultrafine sections were studied using electronic microscope UEM-100SKh.

[3] = system: rat brain cortex in hypoxia; assay: Free radical oxidation reactions in rat brain cortex in hypoxia; type: in vivo, white mongrel rats
Experimental: The study was performed on 18 white mongrel rats. Peptide H-Glu-Asp-Arg-OH was administered to the animals intraperitoneally, in the dose of 1 μg in 1.0 ml of sterile physiological 0.9% NaCl solution once a day for 10 days. 24 hours after the completion of peptide administration the animals were subjected to hypoxic hypoxia. Hypoxia was modeled in the altitude chamber of flow-ejector type, the atmosphere pressure in the chamber being 0.029 MPa, which corresponds to the altitude of 9000 m above sea level. Compression and decompression rate made 0.005 MPa per minute. Carbon dioxide and moisture absorbent was present in the altitude chamber. The animals were held in the chamber for 3 hours in the conditions of free conduct and under constant observation.
The intensity of peroxide lipid oxidation (POL) was estimated judging by the level of initial POL products, i.e. diene conjugates, and terminal products, i.e. Schiff's bases, playing a significant role in neurons damage. The level of protein peroxidation was estimated by the level of carbonyl derivative amino acids in proteins after interaction with 2,4-dinitrophenylhydrazine.

[4] = system: isolated neurons of Astacus leptodactilus crayfish; assay: Life span of isolated crayfish neurons; type: cell-based; conditions: 10 μg/ml
Experimental: Isolated neurons of Astacus leptodactilus crayfish for the in vitro study of peptide H-Glu-Asp-Arg-OH on their life span were extracted by axotomia, being regarded as a model of cell death by apoptosis.
Stretching receptor neurons of a crayfish closely resemble central neurons of vertebrals by their electrophysiological, biological and structure properties. They generate spikes with nearly constant rate during 10-15 hours. Two symmetrical neurons (control and experimental) extracted from the abdominal segment were placed into 2 ml chambers filled with Harreveld's solution. Neuronal potentials were registered extracellularly on the axons by fastened glass pipette electrodes, then amplified and recorded using H-338 recorder. At the same time the frequency of action potentials was registered using two-channel analog frequency meter and H-339 data recorders. In the beginning of the experiment impulse frequency of experimental and control neurons was set on the level of 10-15 Hz by the stretching of the muscle. After 1 hour of stabile spike generation with constant rate peptide H-Glu-Asp-Arg-OH in the concentration of 10 μg/ml was added into the experimental chamber. The activity of the neurons was constantly recorded before the spontaneous termination of spikes generation. Life span of neurons was compared for each couple. Altogether 10 couples of neurons were used.

[5] = system: patients with remote consequences of cranial trauma; assay: Efficacy in patients with consequences of cranial trauma (clinical result, corrective test, EEG alpha index); type: in vivo; conditions: patients of the main groups after treatment
Experimental: This study was performed on 25 patients aged 31-60 with remote consequences of cranial trauma, who were randomly subdivided into 2 groups. These patients sustained cranial traumas from 1 to 10 years ago. Main group patients were subdivided into 3 groups depending on the severity of their cranial trauma. Patients with the most severe consequences of cranial trauma received the pharmaceutical composition containing peptide H-Glu-Asp-Arg-OH once a day, intramuscularly, in the dose of 5.0 mg in 1 ml of sterile 0.9% NaCl solution for 10 days. Main group patients with cranial trauma consequences of intermediate severity were treated with the pharmaceutical composition containing peptide H-Glu-Asp-Arg-OH once a day, intramuscularly, in the dose of 10.0 μg in 1 ml of sterile 0.9% NaCl solution for 10 days. Main group patients with mild consequences of cranial trauma received the pharmaceutical composition containing peptide H-Glu-Asp-Arg-OH once a day, intramuscularly, in the dose of 1.0 μg in 1.0 ml of sterile 0.9% NaCl solution for 10 days.
The efficacy of the pharmaceutical composition containing H-Glu-Asp-Arg-OH peptide was estimated judging by the effect on integral function of the brain, i.e., attention, and on bioelectric activity of the brain using the corrective test and electroencephalogram.
The evaluation of the effect of pharmaceutical composition containing peptide H-Glu-Asp-Arg-OH on bioelectric activity of the brain was performed by means of calculating the alpha index before and after the treatment.

male guinea pigs [6] = conditions: guinea pig, in vivo
Experimental: (§1) The studies of chronic toxicity were conducted for 6 months, basing on the term of recommended clinical administration of the substance, on 84 male guinea pigs with body weight of 270-310 g. Experimental animals received the peptide daily, once a day, intramuscularly, for 6 months in the doses of 1 μg/kg, 0.1 mg/kg, 1 mg/kg in 0.5 ml of sterile 0.9% NaCl solution. Control animals received sterile 0.9% NaCl solution in the same volume and by the same schedule. Traditional methods were used for the evaluation of the following indices of the animals' peripheral blood: the quantity of erythrocytes, hemoglobin, reticulocytes, thrombocytes, leukocytes, leukocyte formula, erythrocyte sedimentation rate (ESR), erythrocyte resistance. Alongside with that, the content of total protein in the serum was identified using Lowry's method, as well as potassium and sodium content using the method of plasma spectrophotometry. After the completion of the experiment pathomorphologic studies of animal brain and spinal cord, spinal cord ganglia, thyroid gland, parathyroid glands, adrenal glands, testis, pituitary body, heart, lungs, aorta, liver, kidneys, urinary bladder, pancreas, stomach, small intestine, large intestine, thymus, spleen, lymph nodes and bone marrow were performed.

male guinea pigs [7] = assay: Study of chronic toxicity, 6 months; conditions: guinea pig, in vivo
Experimental: as §1

[8] = 10 μg/kg intramuscularly daily for 10 days, 30th day
[9] = 1 μg intraperitoneally once a day for 10 days, then hypoxia

N=C(N)NCCC[C@H](NC(=O)[C@H](CC(=O)O)NC(=O)[C@@H](N)CCC(=O)O)C(=O)O [peptide H-Glu-Asp-Arg-OH, glutamyl-aspartyl-arginine] (H-Glu-Asp-Arg-OH)
toxic reactions (white mongrel male mice): does not cause toxic reactions | side effects, subacute toxicity (white mongrel male rats): absence of any side effects | Area index (AI) growth as compared to the control (brain cortex explants; 10 ng/ml, 3rd day of cultivation, statistically significant): 37% | neurites stimulation of cortex explants (brain cortex explants; after 7 days of cultivating, same concentrations): same effects of neurites stimulation | time of holding on to the rod relative to the control (rotating rod test) ([1]; 48 hours after the trauma, 10 μg/kg intramuscularly): more than 2 times | number of animals capable of learning relative to the control ([1]; 96 hours after the trauma, 10 μg/kg intramuscularly, CAAR test): 2 times | indices of the animals' learning ability ([1]; by the 14th day after the trauma): close to normal values | indices of learning ability ([1]; in 30 days, 10 μg/kg intramuscularly): higher than in the control | alterations in nerve cells and outgrowths of upper spinal cord segments [2, 8]: less pronounced | neuronal cell cytoplasm, electronic microscopy [2, 8]: signs of restoration in the neuronal cells cytoplasm | type of neuronal alterations in the spinal cord at the injury spot ([2]; 10 μg/kg intramuscularly daily for 10 days, 30th day, luminous microscopy, control showed much more heavy and ischemic alterations): mainly “primarily irritated” cells | effect on spinal cord neurons regeneration ([2]; animals with spinal cord trauma): stimulating effect on spinal cord neurons regeneration | Diene conjugates [3, 9]: 28.57 ± 1.84 nmole/g of tissue | Level of proteins peroxidation [3, 9]: 4.68 ± 0.07 μmole/mg of protein | Schiff's bases [3, 9]: 255.4 ± 26.8 conv. units/g of tissue | change in Schiff's bases content ([3]; hypoxia, vs control): tendency towards a decrease | change in the level of diene conjugates ([3]; hypoxia, vs control): statistically significant decrease | protein peroxidation ([3]; hypoxia, vs control): inhibited protein peroxidation | Life span of isolated crayfish neurons ([4]; control 11.9 hours): 13.7 h and 13.7 ± 0.2 h | prolongation of the life span of isolated neurons ([4]; vs control): 15% | Number of mistakes (corrective test) ([5]; before treatment 12.6 ± 1.3): 6.4 ± 1.1 | Alpha index (EEG) ([5]; before treatment 35.7 ± 4.6): 47.9 ± 3.1 | Number of registered signs (corrective test) ([5]; before treatment 1519.1 ± 141.7): 2429.6 ± 105.3 | changes in blood morphology and biochemical indices (male guinea pigs [6]): no statistically significant changes | side effects, chronic toxicity (male guinea pigs [6]): absence of any side effects | pathologic alterations in the organism (general status, blood indices, organ morphology, cardiovascular, respiratory, liver and kidney functions) (male guinea pigs [7]): no pathologic alterations
